Measurements published in article PMC9319939, “Siccanin Is a Dual-Target Inhibitor of Plasmodium falciparum Mitochondrial Complex II and Complex III” (Pharmaceuticals, 2022).
Like-named read-outs stand apart in the source and are kept apart here.

Tests used:
P. falciparum 3D7 = assay: Drug sensitivity assay, 72 h, PfLDH-based; type: cell-based; conditions: Plasmodium falciparum, 3D7; Figure 6b; read-out: Growth inhibition EC50, 3D7
Description: The P. falciparum 3D7 strain was cultured, as described previously, in 3% hematocrit type A human red blood cells (RBCs) in RPMI1640 medium (Invitrogen; San Diego, CA, USA) supplemented with 25 mM sodium hydrogen biocarbonate, 10 μg/mL hypoxanthine, 40 μg/mL gentamicin sulfate, and 0.5% (w/v) Albumax II (Invitrogen) (“complete medium”). Cultures were maintained in a MG-70M multi-gas incubator (Taitec) under the conditions of 5% O2, 5% CO2, and 90% N2 at 37 °C. The medium was replaced daily. Parasitemia was measured by thin blood smears stained with Giemsa. In our previous study, we generated mutant P. falciparum strains expressing either disrupted or full-length versions of the flavoprotein (Fp) subunit (encoded by the Pfsdha gene). Both strains were cultured in complete medium at 3% hematocrit supplemented with 5 nM WR99210 (Jacobus Pharmaceuticals; Plainsboro, NJ, USA). The experiments using human RBCs were performed under the guidelines of Research Ethics Committee of the Faculty of Medicine of the University of Tokyo and Institutional Review Board (IRB) of Nagasaki University (Permission nos. 10050 and no. 19, respectively). Human RBCs were obtained from The Japanese Red Cross Society. The synchronization of parasite cultures was performed by treating with 5% (w/v) sorbitol for 10 min [77].
(§1) Synchronized ring-form parasites (0.3% parasitemia) were prepared in complete medium containing different concentration of various compounds (at a fixed final DMSO concentration of 0.1% (v/v)) and distributed to 96-well plates at 100 μL/well. After 72 h of incubation, parasite growth was monitored by the previously described lactate dehydrogenase (PfLDH)-based assay method; plates were read using a SpectraMax® Paradigm spectrophotometer (Molecular Devices, Inc.; San Jose, CA, USA). EC50 values were calculated using Prism® ver.6.01 (GraphPad; San Diego, CA, USA). Values are presented as the means of three independent experiments.

P. falciparum 3D7-yDHODH = assay: Growth inhibition of yeast DHODH-expressing strain; type: cell-based; conditions: Plasmodium falciparum, 3D7, read-out: Growth inhibition EC50, 3D7-yDHODH
Description: P. falciparum 3D7-yDHODH was prepared and maintained as described previously. P. falciparum Dd2, and Dd2-derived mutant strains were kindly provided by David A. Fidock, and maintained at Nagasaki University essentially as described in reference, except without supplementation with WR99210.
as §1

[1] = system: Plasmodium spp. complex II; assay: Plasmodium spp. complex II inhibition (literature values); type: biochemical; conditions: ratio between mammalian and Plasmodium complex II IC50s
Source text: Table 1 Selectivity of classical complex II inhibitor against Plasmodium spp. and mammal complex II. | column: Selectivity ^a

Mammal complex II = conditions: read-out: Complex II IC50, Mammal, cited from earlier work
[2] = system: Plasmodium spp. complex II; conditions: cited from earlier work; for Effect on Plasmodium mitochondrial complex II: classical ubiquinone-site inhibitors, ref [30], [14]

| Compound | EC50 (P. falciparum 3D7) [µM] | EC50 (P. falciparum 3D7-yDHODH) [µM] | Selectivity [1] | IC50 (Mammal complex II; ref Miyadera et al. [29]) [µM] | Effect on Plasmodium mitochondrial complex II [2] | IC50 ([2]; ref Kawahara et al. [14]) [µM] | IC50 (Mammal complex II; ref Mogi et al. [34]) [µM] | IC50 ([2]; ref Suraveratum et al. [30]) [µM] |
| --- | --- | --- | --- | --- | --- | --- | --- | --- |
| O=C1C(O)=C([C@H]2CC[C@H](c3ccc(Cl)cc3)CC2)C(=O)c2ccccc21 [Atovaquone] | 0.00056 | > 0.1 | – | – | – | – | – | – |
| COc1[nH]c(=O)c(C(=O)[C@@H](C)C[C@H](C)[C@@H](Cl)CCl)c(O)c1OC [Atpenin A5] | – | – | 0.00087 | 0.004 | ineffective | 4.6 ± 0.2 | – | – |
| CC1=C(C(=O)Nc2ccccc2)SCCO1 [Carboxin] | – | – | 0.28 | 1 | ineffective | 3.6 ± 1 | – | – |
| O=C(O)CC(=O)O [Malonate] | – | – | 0.26 | – | – | – | 3.4 | 13.2 ± 0.49 |
| O=C(CC(=O)C(F)(F)F)c1cccs1 [TTFA, 2-thenoyltrifluoroacetone] | – | – | <0.11 | 5.4 | ineffective | – | – | > 50 |
